Reference: ChEMBL document CHEMBL3784953, “A homology modelling-driven study leading to the discovery of the first mouse trace amine-associated receptor 5 (TAAR5) antagonists” (Medchemcomm, 2016)
pEC50, pIC50: −log10 of the molar value.

Experiments:
[1] = molecular target: Trace amine-associated receptor 1 (Mus musculus, UniProt Q923Y8); assay: Antagonist activity at mouse TAAR1 expressed in HEK293 cells assessed as inhibition of agonist induced cAMP release preincubated for 5 mins followed by addition of agonist by BRET assay; format: functional, cell-based
Chain of Trace amine-associated receptor 1 (Q923Y8 whole entry): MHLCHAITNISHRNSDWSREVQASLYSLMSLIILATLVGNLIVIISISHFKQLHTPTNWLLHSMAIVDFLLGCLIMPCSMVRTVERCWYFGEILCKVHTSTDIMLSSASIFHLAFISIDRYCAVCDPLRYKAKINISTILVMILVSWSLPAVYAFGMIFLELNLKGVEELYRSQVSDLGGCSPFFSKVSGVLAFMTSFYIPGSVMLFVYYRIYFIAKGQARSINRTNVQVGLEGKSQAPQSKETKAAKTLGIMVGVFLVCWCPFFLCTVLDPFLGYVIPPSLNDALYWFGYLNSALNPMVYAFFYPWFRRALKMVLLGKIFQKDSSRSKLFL

[2] = molecular target: T1, Trace amine-associated receptor 5 (Mus musculus, UniProt Q5QD14); assay: Antagonist activity at mouse TAAR5 expressed in HEK293 cells assessed as inhibition of agonist induced cAMP release preincubated for 5 mins followed by addition of agonist by BRET assay; format: functional, cell-based
T1 sequence (Q5QD14 whole entry): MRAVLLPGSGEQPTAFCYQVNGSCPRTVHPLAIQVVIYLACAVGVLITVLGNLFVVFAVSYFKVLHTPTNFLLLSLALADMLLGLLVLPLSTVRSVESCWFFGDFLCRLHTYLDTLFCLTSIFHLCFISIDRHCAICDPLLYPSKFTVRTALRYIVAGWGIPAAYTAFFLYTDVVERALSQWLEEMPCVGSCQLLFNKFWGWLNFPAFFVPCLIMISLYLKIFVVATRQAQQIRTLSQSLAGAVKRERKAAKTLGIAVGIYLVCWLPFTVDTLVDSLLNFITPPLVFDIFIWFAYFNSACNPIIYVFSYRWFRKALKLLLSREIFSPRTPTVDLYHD

Mus musculus = organism: Mus musculus; assay: Selectivity ratio of IC50 for mouse TAAR1 to IC50 for mouse TAAR5
[3] = molecular target: T2, Trace amine-associated receptor 1 (Homo sapiens) (UniProt Q96RJ0); assay: Agonist activity at human TAAR1 expressed in HEK293 cells assessed as increase in cAMP release after 30 mins by BRET assay; format: functional, cell-based
T2 sequence (whole entry): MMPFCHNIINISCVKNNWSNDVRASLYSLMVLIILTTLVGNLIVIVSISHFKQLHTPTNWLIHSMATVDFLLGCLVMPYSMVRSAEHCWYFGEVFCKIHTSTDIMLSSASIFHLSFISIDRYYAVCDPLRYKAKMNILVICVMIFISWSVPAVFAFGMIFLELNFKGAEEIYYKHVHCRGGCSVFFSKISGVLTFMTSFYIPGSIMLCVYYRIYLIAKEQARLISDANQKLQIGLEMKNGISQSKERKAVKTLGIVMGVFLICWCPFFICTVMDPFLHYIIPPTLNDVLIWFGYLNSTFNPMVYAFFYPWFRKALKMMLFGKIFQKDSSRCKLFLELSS

[4] = molecular target: T3, Trace amine-associated receptor 5 (Mus musculus) (UniProt Q5QD14); assay: (§1) Agonist activity at mouse TAAR5 expressed in HEK293 cells assessed as increase in cAMP release after 30 mins by BRET assay relative to control; format: functional, cell-based
T3 sequence (whole entry): T1 sequence (Q5QD14 whole entry)

[5] = molecular target: T1, Trace amine-associated receptor 5; assay: as §1; format: functional, cell-based

With `COc1ccccc1OCCNCC1CCC(c2ccccc2)(c2ccccc2)O1` (stereo not drawn) the pIC50 [1] was < 4.00 and the pIC50 [2] was 4.54.
With `COc1ccccc1N1CCN(CC2CCC(c3ccccc3)(c3ccccc3)O2)CC1` (stereo not drawn) the pIC50 [1] was < 4.00, the Ratio IC50 (Mus musculus) was > 20 and the pIC50 [2] was 5.32.
For `NCCc1ccc(Oc2ccc(O)cc2)c(I)c1`, the fold change (FC) [3] was 16 and the fold change (FC) [4] was 2.
`CN(C)C` [TRIMETHYLAMMONIUM] was tested, and the pEC50 [5] was 5.68.
